Legend:
[1] = target: T1, human RET (Homo sapiens, UniProt P07949); assay: RET kinase inhibition, GST-wtRET or GST-RET-Men2B, 33P incorporation into poly(Glu,Tyr); assay type: biochemical; settings: Table 4
T1 construct: fused on or other part: N-terminal GST tag (pFB-GSTX3 vector)
Procedure: The inhibition of RET is measured as follows: The baculovirus donor vector pFB-GSTX3 is used to generate a recombinant baculovirus that expresses the amino acid region 658-1072 (Swiss prot No. Q9BTB0) of the intra-cytoplasmic kinase domain of human RET-Men2A which corresponds to the wild-type kinase domain of RET (wtRET) and RET-Men2B, which differs from the wtRET by the activating mutation in the activation loop M918T. The coding sequences for the cytoplasmic domain of wtRET and RET-Men2B are amplified by PCR from the plasmids pBABEpuro RET-Men2A and pBABEpuro RET-Men2B. The amplified DNA fragments and the pFB-GSTX3 vector are made compatible for ligation by digestion with SalI and KpnI. Ligation of these DNA fragments results in the baculovirus donor plasmid pFB-GX3-RET-Men2A and pFB-GX3-RET-Men2B, respectively. Production of virus: Transfer vectors containing the kinase domains are transfected into the DH10Bac cell line (GIBCO) and plated on selective agar plates. Colonies without insertion of the fusion sequence into the viral genome (carried by the bacteria) are blue. Single, white colonies are picked and viral DNA (bacmid) are isolated from the bacteria by standard plasmid purification procedures. Sf9 cells or Sf21 (American Type Culture Collection) cells are then transfected in 25 cm^2 flasks with the viral DNA using Cellfectin reagent. Determination of small scale protein expression in Sf9 cells: Virus-containing media is collected from the transfected cell culture and used for infection to increase its titer. Virus-containing media obtained after two rounds of infection is used for large-scale protein expression. For large-scale protein expression 100 cm^2 round tissue culture plates are seeded with 5×10^7 cells/plate and infected with 1 mL of virus-containing media (approximately 5 MOIs). After 3 days, the cells are scraped off the plate and centrifuged at 500 rpm for 5 minutes. Cell pellets from 10-20, 100 cm^2 plates, are re-suspended in 50 mL of ice-cold lysis buffer (25 mM tris-HCl, pH 7.5, 2 mM EDTA, 1% NP-40, 1 mM DTT, 1 mM P MSF). The cells are stirred on ice for 15 minutes and then centrifuged at 5,000 rpms for 20 minutes. Purification of GST-tagged proteins: The centrifuged cell lysate is loaded onto a 2 mL glutathione-sepharose column (Pharmacia) and is washed 3× with 10 mL of 25 mM tris-HCl, pH 7.5, 2 mM EDTA, 1 mM DTT, 200 mM NaCl. The GST-tagged proteins are then eluted by 10 applications (1 mL each) of 25 mM tris-HCl, pH 7.5, 10 mM reduced-glutathione, 100 mM NaCl, 1 mM DTT, 10% glycerol and stored at −70° C. Measure of enzyme activity: Tyrosine protein kinase assays with either purified GST-wtRET or GST-RET-Men2B protein are carried out in a final volume of 30 μL containing 15 ng of either GST-wtRET or GST-RET-Men2B protein, 20 mM tris-HCl, pH 7.5, 1 mM MnCl2, 10 mM MgCl2, 1 mM DTT, 3 μg/mL poly(Glu,Tyr) 4:1, 1% DMSO, 2.0 μM ATP (γ-[^33P]-ATP 0.1 μCi). The activity is assayed in the presence or absence of inhibitors, by measuring the incorporation of ^33P from [γ^33P] ATP into poly(Glu,Tyr) 4:1. The assay is carried out in 96-well plates at ambient temperature for 15 minutes under conditions described below and terminated by the addition of 20 μL of 125 mM EDTA. Subsequently, 40 μL of the reaction mixture are transferred onto Immobilon-PVDF membrane (Millipore) previously soaked for 5 minutes with methanol, rinsed with water, then soaked for 5 minutes with 0.5% H3PO4 and mounted on vacuum manifold with disconnected vacuum source. After spotting all samples, vacuum is connected and each well-rinsed with 200 μL 0.5% H3PO4. Membranes are removed and washed 4× on a shaker with 1.0% H3PO4, once with ethanol. Membranes are counted after drying at ambient temperature, mounting in Packard TopCount 96-well frame, and addition of 10 μL/well of Microscint™ (Packard). IC50 values are calculated by linear regression analysis of the percentage inhibition of each compound in duplicate, at 4 concentrations (usually 0.01, 0.1, 1 and 10 μM). […]

[2] = target: T2, human VEGF-R2 receptor (KDR) (Homo sapiens, UniProt P35968); assay: VEGF-induced KDR autophosphorylation in transfected CHO cells, sandwich ELISA; assay type: cell-based; settings: Table 4; read-out: KDR, activity (IC50 for kinase inhibition)
T2 construct: expressed in transfected cells; host or cells: CHO cells
T2 sequence (P35968 20-1356): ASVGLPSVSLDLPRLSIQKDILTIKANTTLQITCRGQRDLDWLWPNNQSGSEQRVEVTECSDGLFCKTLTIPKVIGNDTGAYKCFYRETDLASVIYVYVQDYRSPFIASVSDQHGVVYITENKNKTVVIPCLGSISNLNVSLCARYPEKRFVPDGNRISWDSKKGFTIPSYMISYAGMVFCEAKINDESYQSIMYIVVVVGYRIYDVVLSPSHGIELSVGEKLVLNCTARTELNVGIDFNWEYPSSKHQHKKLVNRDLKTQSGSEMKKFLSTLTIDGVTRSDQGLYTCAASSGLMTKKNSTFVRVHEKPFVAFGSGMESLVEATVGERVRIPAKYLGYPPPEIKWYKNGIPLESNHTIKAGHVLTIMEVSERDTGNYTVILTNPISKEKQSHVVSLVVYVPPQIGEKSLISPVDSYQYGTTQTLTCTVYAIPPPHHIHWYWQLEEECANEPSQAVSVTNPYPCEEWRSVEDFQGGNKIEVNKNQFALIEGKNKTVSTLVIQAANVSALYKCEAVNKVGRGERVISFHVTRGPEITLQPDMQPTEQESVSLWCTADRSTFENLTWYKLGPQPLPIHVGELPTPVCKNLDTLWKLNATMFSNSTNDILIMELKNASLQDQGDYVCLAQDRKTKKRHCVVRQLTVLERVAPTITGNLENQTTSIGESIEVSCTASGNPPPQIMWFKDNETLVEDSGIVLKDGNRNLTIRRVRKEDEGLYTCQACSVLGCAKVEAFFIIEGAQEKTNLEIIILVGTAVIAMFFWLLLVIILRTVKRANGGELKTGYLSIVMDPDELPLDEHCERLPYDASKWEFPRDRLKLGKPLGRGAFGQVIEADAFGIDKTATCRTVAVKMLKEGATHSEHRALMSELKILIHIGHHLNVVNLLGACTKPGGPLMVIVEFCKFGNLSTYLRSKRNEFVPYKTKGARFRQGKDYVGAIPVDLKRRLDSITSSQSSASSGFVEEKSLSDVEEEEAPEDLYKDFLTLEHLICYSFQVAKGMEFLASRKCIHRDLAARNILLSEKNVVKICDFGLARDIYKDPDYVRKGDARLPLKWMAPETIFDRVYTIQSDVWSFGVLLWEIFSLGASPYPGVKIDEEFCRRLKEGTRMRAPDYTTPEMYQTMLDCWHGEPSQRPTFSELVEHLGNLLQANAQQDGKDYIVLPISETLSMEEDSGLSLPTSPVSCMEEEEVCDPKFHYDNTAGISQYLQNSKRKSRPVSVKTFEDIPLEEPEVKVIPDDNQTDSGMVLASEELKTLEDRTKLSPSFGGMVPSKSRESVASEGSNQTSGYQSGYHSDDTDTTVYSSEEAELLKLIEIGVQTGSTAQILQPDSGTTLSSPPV

T1 sequence (P07949 1-1072 isoform P07949-2): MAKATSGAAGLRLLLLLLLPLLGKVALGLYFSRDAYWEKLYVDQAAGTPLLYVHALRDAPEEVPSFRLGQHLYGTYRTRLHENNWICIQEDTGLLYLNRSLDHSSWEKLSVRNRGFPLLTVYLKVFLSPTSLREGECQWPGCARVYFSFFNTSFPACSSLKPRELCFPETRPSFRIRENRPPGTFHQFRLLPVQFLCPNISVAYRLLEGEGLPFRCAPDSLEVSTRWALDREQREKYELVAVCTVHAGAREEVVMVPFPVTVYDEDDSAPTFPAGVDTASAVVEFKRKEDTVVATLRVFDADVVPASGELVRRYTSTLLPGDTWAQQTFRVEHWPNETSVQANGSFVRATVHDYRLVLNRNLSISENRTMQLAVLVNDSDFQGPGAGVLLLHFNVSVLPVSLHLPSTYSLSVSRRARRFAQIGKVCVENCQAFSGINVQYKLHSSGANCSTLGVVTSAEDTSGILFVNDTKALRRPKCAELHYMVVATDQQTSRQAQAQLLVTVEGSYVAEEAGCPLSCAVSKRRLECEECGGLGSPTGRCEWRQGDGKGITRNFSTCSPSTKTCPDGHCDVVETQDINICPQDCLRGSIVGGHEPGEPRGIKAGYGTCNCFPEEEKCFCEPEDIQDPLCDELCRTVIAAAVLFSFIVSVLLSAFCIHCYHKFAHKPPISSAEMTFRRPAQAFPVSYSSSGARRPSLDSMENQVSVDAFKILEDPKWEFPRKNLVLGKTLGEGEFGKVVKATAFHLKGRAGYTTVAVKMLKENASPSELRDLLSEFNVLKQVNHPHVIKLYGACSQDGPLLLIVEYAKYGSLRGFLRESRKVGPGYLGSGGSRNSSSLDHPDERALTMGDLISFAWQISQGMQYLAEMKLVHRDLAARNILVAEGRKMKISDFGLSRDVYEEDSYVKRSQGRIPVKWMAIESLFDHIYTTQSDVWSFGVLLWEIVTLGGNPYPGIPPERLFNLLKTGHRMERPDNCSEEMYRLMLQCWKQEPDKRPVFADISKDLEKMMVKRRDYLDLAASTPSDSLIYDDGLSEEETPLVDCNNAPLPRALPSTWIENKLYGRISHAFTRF

| IC50 [1] [µM] | IC50 [2] [µM] | Compound |
| --- | --- | --- |
| < 10 | < 10 | CN1CCN(c2ccc(-c3cnn4c(N)c(-c5cccc(O)c5)cnc34)cc2)CC1 [Example 1, 3-{7-Amino-3-[4-(4-methyl-piperazin-1-yl)-phenyl]-pyrazolo[1,5-a]pyrimidin-6-yl}-phenol] |
| < 10 | < 10 | CN1CCN(c2cccc(-c3cnn4c(N)c(-c5cccc(O)c5)cnc34)c2)CC1 [Example 29, 3-{7-Amino-3-[3-(4-methyl-piperazin-1-yl)-phenyl]-pyrazolo[1,5-a]pyrimidin-6-yl}-phenol] |
| < 10 |  | CN1CCN(c2cccc(-c3cnn4c(N)c(-c5ccc(O)cc5)cnc34)c2)CC1 [Example 39, 4-{7-Amino-3-[3-(4-methyl-piperazin-1-yl)-phenyl]-pyrazolo[1,5-a]pyrimidin-6-yl}-phenol] |
|  | < 10 | Nc1c(-c2cccc(O)c2)cnc2c(-c3cccnc3)cnn12 [Example 46, 3-[7-Amino-3-pyridin-3-yl-pyrazolo[1,5-a]pyrimidin-6-yl]-phenol] |
| < 10 |  | COc1ccccc1-c1cnn2c(N)c(-c3cccc(O)c3)cnc12 [Example 48, 3-[7-Amino-3-(2-methoxy-phenyl)-pyrazolo[1,5-a]pyrimidin-6-yl]-phenol] |

Reference: US20090099167A1, “Organic compounds” (Novartis Institutes for Biomedical Research, priority 2004, published 2009)
